Experimental data taken from article PMC10057994, “Click Triazole as a Linker for Pretargeting Strategies: Synthesis, Docking Investigations, Fluorescence Diagnosis, and Antibacterial Action Studies” (Molecules, 2023).

Key:
[1] = test system: Agrobacterium tumefaciens; assay: Antibacterial activity, LB plate microdilution test; type: cell-based; conditions: for antibacterial activity: cultured for 8 h
Description: The compounds A1–A3 were evaluated through the plate microdilution test according to the guidelines of the Clinical and Laboratory Standards Institute (CLSI). A colony of Agrobacterium tumefaciens grown on lysogeny broth (LB) agar plates was inoculated in lysogeny broth (LB) and incubated in an aerobic environment at 28 °C overnight (ON). The bacterial suspension was diluted to 5 × 10^7 CFU/mL, and 200 µL was added to each well, obtaining a final density of […]. Meanwhile, A1–A3 were serially diluted in 1X PBS at concentrations of 30, 50, and 100 µmol/L. Cefuroxime was used as an antibiotic control and DMSO as a solvent control. Subsequently, the plates were incubated at 28 °C in aerobiosis, and the growth rate was evaluated after 4, 6, 8, and 10 h using an ultraviolet (UV) detector.

[2] = UV-Vis absorption spectroscopy; type: physicochemical; conditions: in methanol
Description: (§1) The ^1H NMR and ^13C NMR spectra were recorded at 25 °C in a Nuclear Magnetic Resonance Spectrophotometer (DRX-400, Bruker, Bremerhaven, Germany) at 400 MHz for ^1H NMR in DMSO-d6 and 100 MHz for ^13C NMR in CDCl3. Thin layer chromatography (TLC) was carried out on silica gel (GF254, Qingdao Haiyang Chemical Co., Ltd., Qingdao, China), and the spots were visualized with UV light at 254 nm. Fluorescence spectra were recorded on a fluorescence spectrophotometer (F-2710, Hitachi, Tokyo, Japan). UV-Vis spectrophotometer (UH5300, Hitachi, Tokyo, Japan) was used for the absorption measurements and the spectra were typically measured in the range of 190–1100 nm.
The sample of the compounds (A1–A3) was diluted to 1 × 10^−5 mg/mL. After thorough mixing, the target molecules were detected using a UV spectrophotometer at UV absorption wavelengths. The volume of the sample needed to be greater than 2/3 of the cuvette volume. All experiments were performed in triplicate.

[3] = test system: RAW264.7 cell; assay: MTT cell proliferation (cytotoxicity) assay; type: cell-based; conditions: for IC50: MTT, 36 h treatment
Description: The “click” reaction conditions in click chemistry require copper sulfate and sodium ascorbate as catalysts, and the copper sulfate concentration is generally too high, which causes certain damage to the body. RAW264.7 cells were used as test cells to explore the safe concentration of copper sulfate, compounds A1–A3, and probes T1–T4. The macrophage suspension of RAW264.7 cells in the logarithmic growth stage was adjusted to 5 × 10^4 cells/mL and seeded in 96-well plates with 100 µL in each well. The cells were incubated at 37 °C and 5% CO2 for 24 h and then treated with different concentrations of copper sulfate solution (each concentration was repeated three times). After being treated with copper sulfate for 36 h, 10 µL MTT (5 mg/mL) was added to each well, and the cells were incubated at 37 °C and 5% CO2 for 4 h. Then, the MTT in the well was discarded, and 100 µL DMSO was added to each well and incubated at 37 °C for 0.5 h until the crystals were completely dissolved. The microplate reader read the OD490 nm of each well. The cytotoxicity assays of compounds A1–A3 and probes T1–T4 were the same as above. The cell proliferation inhibition rate (IC50) was calculated using SPSS 16.0 software.

[4] = Fluorescence excitation and emission spectra; type: physicochemical
Description: as §1
The sample of probes (T1–T4) was diluted to 1 × 10^−5 mg/mL for fluorescence, excitation, and emission spectra measurement by a fluorescence spectrophotometer. All experiments were performed in triplicate.

[5] = test system: Agrobacterium tumefaciens; assay: Fluorescence detection of Agrobacterium tumefaciens by diagnostic molecules (click in situ, fluorescence microscope); type: cell-based; conditions: inhibitor 8 h (A1 30, A2 50, A3 50 µmol/L), then same amount of probe, copper sulfate and sodium ascorbate, click 1 h; probe-only controls
Description: An amount of 3 mL of the standby Agrobacterium solution at a concentration of 5 × 10^3 CFU/mL was added to the shaker tube. Then, 200 µL of A1 at a concentration of 30 µmol/L, A2 at a concentration of 50 µmol/L, and A3 at a concentration of 50 µmol/L were added at 28 °C. After incubation at 200 RPM/min for 8 h, the upper layer of the medium was poured off after centrifugation and washed three times with PBS, and the bacterial solution was resuspended by adding 1 mL of medium. Then, the same amount of probe was added, and 15 µL copper sulfate and sodium ascorbate were added at a concentration of 10 µmol/L. The control group was treated with only the corresponding probe, and the concentration of each probe was the same as that of the corresponding inhibitor. After adding probes to each group, the “click” reaction was complete for 1 h. After centrifugation, the upper layer of the medium was poured off and washed three times with PBS. Then, 1 mL of the medium was added to resuspend the bacterial solution, and 10 µL was added to the slide for fluorescence microscope detection and observation of the fluorescence of Agrobacterium in each group.

| absorption maxima (λmax) [2] [nm] | best emission wavelength [4] [nm] | best excitation wavelength [4] [nm] | Compound | IC50 ([3]; Mus musculus) [µM] | also measured |
| --- | --- | --- | --- | --- | --- |
| 352 |  |  | C#CCOc1ccc(O)c(C(=O)N/N=C/c2ccc(-c3ccccc3[N+](=O)[O-])o2)c1 [A1, (E)-2-hydroxy-N’-((5-(2-nitrophenyl)furan-2-yl)methylene)-5-(prop-2-ynyloxy)benzohydrazide] | > 98 | antibacterial activity ([1]; 30 µmol/L): 35% |
| 332 |  |  | C#CCNc1cccc(C(=O)N/N=C/c2ccc(-c3ccccc3[N+](=O)[O-])o2)c1 [A2, (E)-N’-((5-(2-nitrophenyl)furan-2-yl)methylene)-3-(prop-2-ynylamino)benzohydrazide] | > 96 | antibacterial activity ([1]; 50 µmol/L): 45%; antibacterial activity (in words) ([1]; Agrobacterium tumefaciens, 30-100 µmol/L, 4-10 h): better antibacterial activity than A1 and A3 |
| 346 |  |  | [N-]=[N+]=NCCOc1ccc(O)c(C(=O)N/N=C/c2ccc(-c3ccccc3[N+](=O)[O-])o2)c1 [A3, (E)-5-(2-azidoethoxy)-2-hydroxy-N’-((5-(2-nitrophenyl)furan-2-yl)methylene)benzohydrazide] | > 100 | antibacterial activity ([1]; 50 µmol/L): 35% |
|  | 310 | 273 | [N-]=[N+]=NCCOc1ccc(/C=N/c2ccccc2OCc2ccccc2[N+](=O)[O-])c(O)c1 [T1, (E)-2-((2-(2-nitrobenzyloxy)phenylimino)methyl)-5-(2-azidoethoxy)phenol] | > 100 |  |
|  | 315 | 273 | C#CCOc1ccc(/C=N/c2ccccc2O)c(O)c1 [T2, (E)-2-((2-hydroxyphenylimino)methyl)-5-(prop-2-ynyloxy)phenol] | > 92 |  |
|  | 377 | 327 | C#CCOc1ccc(-c2nc3ccccc3s2)c(O)c1 [T3, 2-(benzo[d]thiazol-2-yl)-5-(prop-2-ynyloxy)phenol] | > 100 | fluorescence of Agrobacterium tumefaciens [5]: did not emit fluorescence; melting point: 179 to 180 °C |
|  |  |  | O=S(=O)([O-])[O-].[Cu+2] [copper sulfate] |  | cell survival rate ([3]; copper sulfate concentration 12 µmol/L): 80% |

| Compound | absorption maxima (λmax) [2] [nm] | best emission wavelength [4] [nm] | best excitation wavelength [4] [nm] | IC50 ([3]; Mus musculus) [µM] | also measured |
| --- | --- | --- | --- | --- | --- |
| (E)-5-(3-azidopropoxy)-2-((2-hydroxyphenylimino)methyl)phenol [T4] |  | 313 | 272 |  | fluorescence of Agrobacterium tumefaciens [5]: did not emit fluorescence; IC50 [3]: > 87 µM |
